{
  "source": "patent US12528774B2",
  "about": "“Thiosemicarbazone compounds and uses thereof” (The Regents of the University of California, priority 2019, dated 2026)",
  "key": {"MIAPACA2 cells [1]": {"test_system": "MIAPACA2 cells", "assay": "Proliferation assay (CellTiter-Glo, 72 h) in MIAPACA2 cells", "type": "cell-based, human", "settings": "for IC90: Homo sapiens, MIA PaCa-2, 72 h, MIAPACA2, 72 h", "protocol": "IC90 values against MIAPACA2 cells was first determined in normal cell culture conditions (DMEM media and 10% FBS). Compounds were separated into three series (4′ primary amines, 4′ secondary amines, 4′ tertiary amines) to reflect the relative degrees of 4′ amine methylation. […] (Refs 41, 42).\nHCT compounds are known to be copper chelators. (Ref. 32). To test whether the compounds described herein were similarly potentiated, the IC90 (+Cu IC90) values were determined against MIAPACA2 cells in media supplemented with physiologically relevant levels of copper (DMEM media+10% FBS+20 μM CuCl2). MIAPACA2 cells were treated with the indicated HCT±20 μM Cu(II) for 72 hours, then cell viability was measured with CellTiter-Glo to determine IC90 values.\n(§1) Proliferation assay: Cells were plated in 384-well plates (500 cells/well for adherent cell lines in 30 μl volume). Drugs were serially diluted to the desired concentrations and an equivalent volume of DMSO was added to vehicle control. Following 72 h incubation, ATP content was measured using CellTiter-Glo reagent according to manufacturer's instructions (Promega, CellTiter-Glo Luminescent Cell Viability Assay), and analyzed by SpectraMax luminometer (Molecular Devices). IC50 and IC90 values, concentrations required to inhibit proliferation by 50% and 90% respectively compared to DMSO treated cells, were calculated using Prism 6.0 h (Graphpad Software).\nas §1, with “assay.” for “assay:”, “Software). The 430-member protein kinase inhibitor library used for the chemical genomics screen was purchased from Selleckchem, Catalog No. L1200.” for “Software).”"}, "MIAPACA2 cells [2]": {"test_system": "MIAPACA2 cells", "assay": "Viability assay (trypan blue) in MIAPACA2 cells with co-treatments", "type": "cell-based", "from_the_text": "FIG. 1A: IC50 values in a panel of human and mouse prostate cancer (PC)(cell lines CF-2, LNCaP, 22Rv1, RM-1, MyC CaP); small cell lung carcinoma (SCLC)(cell lines NCI-H1963, NCI-H146, NCI-H526); pancreatic ductal adenocarcinoma (PDAC)(CFPAC1, SW1990, HS766T, PANC0203, PANC0813, ASPC1, HPAFII, PATU8902, PANC0327, PANC1, YAPC, L36PL, XWR200, HUPT4, A13A, SUIT2, DAN-G, BxPC3, HPAC, PSN1, SU8686, KP4662, MIAPACA2, PATU8988T); and leukemia (cell lines KG-1, TF-1, Jurkat, MOLT-4, p185-R, MV4-11) models treated with HCT13+Cu(II) (20 μM) for 72 h measured by CellTiterGlo. […] (mean±SD, n=2, one-way ANOVA corrected for multiple comparisons by Bonferroni adjustment, * P<0.05; **P<0.01; ***P<0.001).\nFIGS. 2A-2I. FIG. 2A: representative immunoblots of MIAPACA2 PDAC cells treated as indicated for 24h. FIGS. 2B-2C: reactive oxygen species (ROS) measurement using CM-H2DCFDA staining after HCT13 (25 nM)+Cu(II) (20 μM) treatment for 24h; mean fluorescence intensity (MFI); mean±SD, n=2, Student t-test, ***P<0.001. FIG. 2D-2E: mitochondrial ROS detection using MitoSOX staining in MIAPACA2 PDAC cells treated with HCT-13 (25 nM)+Cu(II) (20 μM) for 24h; mean±SD, n=2, Student t-test, ***P<0.001. FIG. 2F: oxygen consumption rate (OCR) of MIAPACA2 PDAC cells treated with HCT-13 (25 nM)+Cu(II) (20 μM). FIG. 2G: OCR of isolated mitochondria measured with or without HCT-13 (25 nM)+Cu(II) (20 μM). FIG. 2H: viability of 143 BTK parental (wild type, WT) and po cells after 48 h of treatment with the indicated HCT-13 concentrations+Cu(II) (20 μM) treatment, assessed with trypan blue staining; mean±SD, n=2, Student t-test, ***P<0.001. FIG. 2I: cell viability by trypan blue staining in MIAPACA2 PDAC cells to interrogate the interaction of HCT-13 (25 nM)+Cu(II) (20 μM) with 2-DG (2 mM) for 48 h; mean±SD, n=2, Student t-test, ***P<0.001.\nFIG. 5A: rescue of HCT-13 (25 nM)-induced cell death by Uridine (rU) (200 μM), Pyruvate (1 mM), or both following 48h of treatment. FIG. 5B: measurement of DHODH activity using recombinant DHODH assay following treatment with indicated perturbations for 2 min. DHODH inhibitor used: NITD-982-1 μM; HCT-13-100 nM, 1 μM, (100 nM data shown); Cu(II)—20 μM. (mean±SD, n=2, Student t-test, * P<0.05).\nViability/Apoptosis assay: Viable cells were measured by Trypan blue staining using vi-cell counter (Beckman Coulter, CA, USA). Apoptosis and cell death were assayed using Annexin V-FITC and PI according to manufacturer's instructions (FITC Annexin V Apoptosis Detection Kit, BD Sciences, #556570).\nViability/Apoptosis assay. Viable cells were measured by Trypan blue staining using a Vi-Cell counter (Beckman Coulter, CA, USA). […]"}},
  "note": "“And” between values parts separate entries of the source, which are not always exact repeats. Identical values can stand only once. Like-named read-outs stand apart in the source and are kept apart here.",
  "data": [
    {"smiles": "CN(C)C(=S)N/N=C/c1nccc2cc(F)ccc12", "note": "(mixture of isomers) [HCT13, (E)-2-((6-Fluoroisoquinolin-1-yl)methylene)-N,N-dimethylhydrazine-1-carbothioamide and (Z)-2-((6-Fluoroisoquinolin-1-yl)methylene)-N,N-dimethylhydrazine-1-carbothioamide]", "values": [
      {"measurement": "increase in potency under copper supplementation versus non-copper-supplemented IC90", "setting": "MIAPACA2 cells [1]; 20 μM CuCl2", "value": "greater than 5 fold"},
      {"measurement": "antiproliferative potency with Cu(II) supplementation", "setting": "MIAPACA2 cells [1]; 72 h, Cu(II) 20 μM", "value": "highest"},
      {"measurement": "IC90", "setting": "MIAPACA2 cells [1]; DMEM + 10% FBS + 20 μM CuCl2, read-out: +Cu(II) IC90", "value": 0.0216, "unit": "µM"},
      {"measurement": "IC90", "setting": "MIAPACA2 cells [1]; DMEM + 10% FBS, no copper supplementation, read-out: IC90", "value": 0.11, "unit": "µM"},
      {"measurement": "potency relative to non-methylated analog HCT3", "setting": "MIAPACA2 cells [1]; IC90 without copper", "value": "~50", "unit": "fold"},
      {"measurement": "potency relative to non-fluorinated analog", "setting": "MIAPACA2 cells [1]; IC90 without copper, analog of same 4′ amine series (HCT1, HCT6 or HCT11)", "value": "~250 fold and ~270 fold"},
      {"measurement": "cytotoxicity in presence of bathocuproine disulfonate (BCPS)", "setting": "MIAPACA2 cells [2]; HCT13 25 nM + Cu(II) 20 μM, 24 h, BCPS 300 μM", "value": "abrogated"},
      {"measurement": "activity with co-administration of 2-deoxyglucose (2-DG)", "setting": "MIAPACA2 cells [2]; HCT-13 25 nM + Cu(II) 20 μM, 2-DG 2 mM, 48 h", "value": "significantly potentiated"},
      {"measurement": "cytotoxicity with pyruvate supplementation", "setting": "MIAPACA2 cells [2]; HCT-13 25 nM, pyruvate 1 mM, 48 h", "value": "not by pyruvate"},
      {"measurement": "cytotoxicity with uridine (rU) supplementation", "setting": "MIAPACA2 cells [2]; HCT-13 25 nM, uridine 200 μM, 48 h", "value": "partially abolished"}
    ]}
  ]
}
